Experimental findings from patent publication US9045445B2, “Glycine transporter-1 inhibitors, methods of making them, and uses thereof” (Albany Molecular Research, Inc., priority 2010, dated 2015) are described below.

The term IC50 denotes the point on the concentration scale where inhibition reaches its midpoint.

Counter-ions that a name gives are not always drawn.

The target of this assay is T1, glycine transporter-1 (GlyT-1) (Homo sapiens, UniProt P48067).
T1 construct: JAR cells (ATCC#HTB-144), which endogenously express GlyT-1; host or cells: JAR human choriocarcinoma cells
T1 sequence (P48067 1-706): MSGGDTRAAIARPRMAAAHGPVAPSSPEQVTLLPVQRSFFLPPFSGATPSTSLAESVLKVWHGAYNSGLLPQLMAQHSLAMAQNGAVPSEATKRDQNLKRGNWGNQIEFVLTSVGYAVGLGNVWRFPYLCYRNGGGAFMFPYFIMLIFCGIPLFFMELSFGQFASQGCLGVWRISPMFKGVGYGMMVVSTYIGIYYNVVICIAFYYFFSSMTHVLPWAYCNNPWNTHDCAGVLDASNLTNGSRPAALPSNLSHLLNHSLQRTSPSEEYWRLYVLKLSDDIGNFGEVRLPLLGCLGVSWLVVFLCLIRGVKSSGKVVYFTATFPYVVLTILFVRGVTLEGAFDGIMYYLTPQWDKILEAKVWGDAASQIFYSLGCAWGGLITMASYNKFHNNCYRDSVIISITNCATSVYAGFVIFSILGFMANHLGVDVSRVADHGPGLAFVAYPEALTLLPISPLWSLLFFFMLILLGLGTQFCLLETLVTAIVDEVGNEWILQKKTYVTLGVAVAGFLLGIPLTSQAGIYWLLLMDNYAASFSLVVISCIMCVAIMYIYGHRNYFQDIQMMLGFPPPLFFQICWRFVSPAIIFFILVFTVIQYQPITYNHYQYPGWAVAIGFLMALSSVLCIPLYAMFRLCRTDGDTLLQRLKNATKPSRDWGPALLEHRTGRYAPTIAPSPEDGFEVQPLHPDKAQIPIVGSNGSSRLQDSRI
As to the kind of experiment: [14C]glycine uptake assay in JAR cells endogenously expressing GlyT-1 (scintillation proximity). The class given is cell-based. The settings on record: JAR cells, [14C]glycine 5 μM, 3 hour incubation; read-out: GlyT-1 IC50. As to the method:
The inhibitory activity of compounds of the invention against the glycine transporter-1 (GlyT-1) can be determined by the following scintillation proximity assay. The potency of each compound was assessed in inhibiting the uptake of radiolabeled glycine ([^14C]glycine) using the human choriocarcinoma cell line, JAR cells (ATCC#HTB-144), which endogenously express GlyT-1. In brief, 50,000 JARS cells were plated per well of tissue culture treated 96-well Cytostar-T plate (PerkinElmer) in RPMI media supplemented with 10% heat inactivated FBS and allowed to attach overnight at 37° C. and 5% CO2. Compounds were serially diluted 3-fold in DMSO generating a nine (9) data point response curve for each compound. Two replicates were performed per determination. The compounds were then diluted into Uptake Buffer (10 mM Hepes, 120 mM NaCl, 2 mM KCl, 1 mM CaCl2 and 1 mM MgCl2, 5 mM Alanine, pH 7.4) with a final DMSO concentration of 0.75% (v/v). Following the overnight incubation, the media was replaced with Uptake Buffer in the presence or absence of diluted compound and pre-incubated at room temperature for 10 minutes prior to the addition of [^14C]glycine at a final concentration of 5 μM. Following a 3 hour incubation period at 37° C. and 5% CO2, the plates were sealed and placed at room temperature in the dark for 15 minutes prior to quantification of incorporated radioactivity using a MicroBeta Trilux scintillation plate reader (PerkinElmer). Data were fit into a four-parameter model to determine the inhibitor concentration at half-maximal response (IC50). The assay window was established by control wells incubated with [^14C]glycine in the presence or absence of 10 mM non-labeled glycine. A dose response curve for a synthesized reference standard was generated on every plate as a positive control.
As for `CC(O)CS(=O)(=O)N1CCN(C2(CNC(=O)c3ccc(C(F)(F)F)cc3Cl)CCC(F)(F)CC2)CC1` (single isomer, unassigned; enantiomer b) [compound 279, (Enantiomer B)-2-Chloro-N-((4,4-difluoro-1-(4-(2-hydroxypropylsulfonyl)piperazin-1-yl)cyclohexyl)methyl)-4-(trifluoromethyl) benzamide Hydrochloride], the IC50 was determined as 68 nM.
Take `CCCS(=O)(=O)N1CCN(C2(CNC(=O)c3c(N)cccc3Cl)CCC2)CC1` [compound 78, 2-Amino-6-chloro-N-((1-(4-(propylsulfonyl)piperazin-1-yl)cyclobutyl)methyl) benzamide Hydrochloride]: the IC50 was 2440 nM.
For `CCCS(=O)(=O)N1CCN(C2(CNC(=O)c3ccc(F)cc3C)CCC(F)(F)CC2)CC1` [compound 145, N-((4,4-Difluoro-1-(4-(propylsulfonyl)piperazin-1-yl)cyclohexyl)methyl)-4-fluoro-2-methylbenzamide Hydrochloride], the IC50 worked out at 52 nM.
Next, `CCCS(=O)(=O)N1CCN(C2(CNC(=O)c3c(F)cc(Cl)cc3Cl)CCC(F)(F)CC2)CC1` [compound 255, 2,4-Dichloro-N-((4,4-difluoro-1-(4-(propylsulfonyl)piperazin-1-yl)cyclohexyl)methyl)-6-Fluorobenzamide Hydrochloride]: 14 nM.
The result for `CCCS(=O)(=O)N1CCN(C2(CNC(=O)c3ccc(F)cc3Cl)CCC(F)(F)CC2)CC1` [compound 154, 2-Chloro-N-((4,4-difluoro-1-(4-(propylsulfonyl)piperazin-1-yl)cyclohexyl)methyl)-4-fluorobenzamide Hydrochloride] reads 38 nM; that for `CCCS(=O)(=O)N1CCN(C2(CNC(=O)c3c(C)cccc3F)CCC(F)(F)CC2)CC1` [compound 147, N-((4,4-Difluoro-1-(4-(propylsulfonyl)piperazin-1-yl)cyclohexyl)methyl)-2-fluoro-6-methyl-benzamide Hydrochloride], 31 nM; that for `Cn1cc(S(=O)(=O)N2CCN(C3(CNC(=O)c4ccc(C(F)(F)F)cc4C(F)(F)F)CCCC3)CC2)nn1` [compound 275, N-((1-(4-(1-Methyl-1H-1,2,3-triazol-4-ylsulfonyl)piperazin-1-yl)cyclopentyl)methyl)-2,4-bis(trifluoromethyl) benzamide Hydrochloride], 7 nM.
In the case of `CCS(=O)(=O)N1CCN(C2(CNC(=O)c3c(F)cc(Cl)cc3F)CCC(F)(F)CC2)CC1` [compound 208, 4-Chloro-N-((1-(4-(ethylsulfonyl)piperazin-1-yl)-4,4-difluoro-cyclohexyl)methyl)-2,6-difluorobenzamide Hydrochloride], the IC50 was 137 nM.
Take `Cn1cc(S(=O)(=O)N2CCN(C3(CNC(=O)c4cc(F)c(Cl)cc4F)CCC(F)(F)CC3)CC2)nn1` [compound 238, 4-Chloro-N-((4,4-difluoro-1-(4-(1-methyl-1H-1,2,3-triazol-4-ylsulfonyl)piperazin-1-yl)cyclohexyl)methyl)-2,5-difluorobenzamide Hydrochloride]: the IC50 was 12 nM.
For `CCCS(=O)(=O)N1CCN(C2(CNC(=O)c3c(F)cccc3OC(F)(F)F)CCC(F)(F)CC2)CC1` [compound 158, N-((4,4-Difluoro-1-(4-(propylsulfonyl)piperazin-1-yl)cyclohexyl)methyl)-2-fluoro-6-(trifluoro-methoxy)benzamide Hydrochloride], the IC50 is 35 nM.
For `Cc1ccccc1C(=O)NCC1(N2CCN(S(=O)(=O)c3cn(C)cn3)CC2)CCC(F)(F)CC1` [compound 179, N-((4,4-difluoro-1-(4-(1-methyl-1H-imidazol-4-ylsulfonyl)piperazin-1-yl)cyclohexyl)methyl)-2-methylbenzamide Hydrochloride], the 50% inhibitory concentration (IC50) worked out at 25 nM.
In the case of `CC1CN(S(=O)(=O)c2cn(C)nn2)C(C)CN1C1(CNC(=O)c2ccc(C(F)(F)F)cc2C(F)(F)F)CCC(F)(F)CC1` (centres unmarked) [compound 237, N-((1-(2,5-Dimethyl-4-(1-methyl-1H-1,2,3-triazol-4-ylsulfonyl)piperazin-1-yl)-4,4-difluorocyclohexyl)methyl)-2,4-bis(trifluoromethyl) benzamide Hydrochloride], the concentration for half-maximal inhibition (IC50) worked out at 2 nM.
Consider `CCCS(=O)(=O)N1CCN(C2(CNC(=O)c3ccc(C)c(Cl)c3)CCCCC2)CC1` [compound 31, 3-Chloro-4-methyl-N-((1-(4-(propylsulfonyl)piperazin-1-yl)cyclohexyl)methyl) benzamide Hydrochloride], for which the IC50 was 590 nM.
For the compound `CCCS(=O)(=O)N1CCN(C2(CNC(=O)c3ccc(C)c(C)c3)CCCCC2)CC1` [compound 35, 3,4-Dimethyl-N-((1-(4-(propylsulfonyl)piperazin-1-yl)cyclohexyl)methyl) benzamide Hydrochloride], the IC50 stood at 1070 nM.
`CCCS(=O)(=O)N1CCN(C2(CNC(=O)c3ccc(F)cc3C)CCCCC2)CC1` [compound 10, 4-Fluoro-2-methyl-N-((1-(4-(propylsulfonyl)piperazin-1-yl)cyclohexyl)methyl) benzamide Hydrochloride]: the half-maximal inhibitory concentration (IC50) was 28 nM.
As for `CCCS(=O)(=O)N1CCN(C2(CNC(=O)c3cccc(C)c3)CCCCC2)CC1` [compound 37, 3-Methyl-N-((1-(4-(propylsulfonyl)piperazin-1-yl)cyclohexyl)methyl) benzamide Hydrochloride], the IC50 worked out at 1140 nM.
In the case of `Cn1cc(S(=O)(=O)N2CCN(C3(CNC(=O)c4c(F)cc(Cl)cc4Cl)CCC(F)(F)CC3)CC2)nn1` [compound 241, 2,4-Dichloro-N-((4,4-difluoro-1-(4-(1-methyl-1H-1,2,3-triazol-4-ylsulfonyl)piperazin-1-yl)cyclohexyl)methyl)-6-fluorobenzamide Hydrochloride], the half-maximal inhibitory concentration (IC50) is 1 nM.
For `CCCS(=O)(=O)N1CCN(C2(CNC(=O)c3c(Cl)cccc3Cl)CCCCC2)CC1` [compound 43, 2,6-Dichloro-N-((1-(4-(propylsulfonyl)piperazin-1-yl)cyclohexyl)methyl) benzamide Hydrochloride], the IC50 came out at 12 nM.
Consider `Cn1cc(S(=O)(=O)N2CCN(C3(CNC(=O)c4c(Cl)cccc4Cl)CCC(F)(F)CC3)CC2)nn1` [compound 190, 2,6-Dichloro-N-((4,4-difluoro-1-(4-(1-methyl-1H-l,2,3-triazol-4-ylsulfonyl)piperazin-1-yl)cyclohexyl)methyl) benzamide Hydrochloride], for which the 50% inhibitory concentration (IC50) was found to be 1 nM.
In the case of `Cn1cnc(S(=O)(=O)N2CCN(C3(CNC(=O)c4c(Cl)cccc4OC(F)(F)F)CCC(F)(F)CC3)CC2)c1` [compound 187, 2-Chloro-N-((4,4-difluoro-1-(4-(1-methyl-1H-imidazol-4-ylsulfonyl)piperazin-1-yl)cyclohexyl)methyl)-6-(trifluoromethoxy) benzamide Hydrochloride], the IC50 turned out to be 1 nM.
As to `COc1ccccc1C(=O)NCC1(N2CCN(S(=O)(=O)c3cn(C)cn3)CC2)CCC(F)(F)CC1` [compound 177, N-((4,4-Difluoro-1-(4-(1-methyl-1H-imidazol-4-ylsulfonyl)piperazin-1-yl)cyclohexyl)methyl)-2-methoxybenzamide Hydrochloride], the IC50 was determined as 34 nM.
Take `CCS(=O)(=O)N1CCN(C2(CNC(=O)c3ccc(C(F)(F)F)cc3C(F)(F)F)CCC(F)(F)CC2)CC1` [compound 204, N-((1-(4-(Ethylsulfonyl)piperazin-1-yl)-4,4-difluorocyclohexyl)methyl)-2,4-bis(trifluoromethyl) benzamide Hydrochloride]: the IC50 stood at 95 nM.
`CCCS(=O)(=O)N1CCN(C2(CNC(=O)c3ccccc3OC(F)F)CCC(F)(F)CC2)CC1` [compound 142, N-((4,4-Difluoro-1-(4-(propylsulfonyl)piperazin-1-yl)cyclohexyl)methyl)-2-(difluoromethoxy) benzamide Hydrochloride]: the IC50 was determined as 158 nM.
